Legend:
Type in all cases: cell-based
Corynespora cassiicola = Corynespora cassiicola growth inhibition in liquid culture (microtiter plate, photometric); conditions: for Observed Activity (%): A-1.3 0 ppm
Excerpt: A synergistic effect exists whenever the action of an active ingredient combination is greater than the sum of the actions of the individual components. The action to be expected E for a given active ingredient combination obeys the so-called COLBY formula and can be calculated as follows (COLBY, S. R. “Calculating synergistic and antagonistic responses of herbicide combination”. Weeds, Vol. 15, pages 20-22; 1967): • ppm=milligrams of active ingredient (=a.i.) per liter of spray mixture • X=% action by active ingredient A) using p ppm of active ingredient • Y=% action by active ingredient B) using q ppm of active ingredient. According to COLBY, the expected (additive) action of active ingredients A)+B) using p+q ppm of active ingredient is: If the action actually observed (O) is greater than the expected action (E), then the action of the combination is super-additive, i.e. there is a synergistic effect. In mathematical terms, synergism corresponds to a positive value for the difference of (O-E). In the case of purely complementary addition of activities (expected activity), said difference (O-E) is zero. A negative value of said difference (O-E) signals a loss of activity compared to the expected activity. Corynespora cassiicola (Target Spot of Soybean, Target Leaf Spot of Tomato): Conidia of the fungus from cryogenic storage were directly mixed into nutrient broth (PDB potato dextrose broth). A DMSO solution of the test compounds was placed into a microtiter plate (96-well format) and the nutrient broth containing the fungal spores was added to it. The test plates were incubated at 24° C. and the inhibition of growth was determined photometrically after 3-4 days at 620 nm. Rates and results are set out in the following tables: […]

Septoria glycines = Septoria glycines growth inhibition in liquid culture (microtiter plate, visual)
Excerpt: A synergistic effect exists whenever the action of an active ingredient combination is greater than the sum of the actions of the individual components. The action to be expected E for a given active ingredient combination obeys the so-called COLBY formula and can be calculated as follows (COLBY, S. R. “Calculating synergistic and antagonistic responses of herbicide combination”. Weeds, Vol. 15, pages 20-22; 1967): • ppm=milligrams of active ingredient (=a.i.) per liter of spray mixture • X=% action by active ingredient A) using p ppm of active ingredient • Y=% action by active ingredient B) using q ppm of active ingredient. According to COLBY, the expected (additive) action of active ingredients A)+B) using p+q ppm of active ingredient is: If the action actually observed (O) is greater than the expected action (E), then the action of the combination is super-additive, i.e. there is a synergistic effect. In mathematical terms, synergism corresponds to a positive value for the difference of (O-E). In the case of purely complementary addition of activities (expected activity), said difference (O-E) is zero. A negative value of said difference (O-E) signals a loss of activity compared to the expected activity. Septoria glycines (Brown Spot): Conidia of the fungus from cryogenic storage were directly mixed into nutrient broth ([…] potato dextrose broth). A DMSO solution of the test compounds was placed into a microtiter plate (96-well format) and the nutrient broth containing the fungal spores was added to it. The test plates were incubated at 24° C. and the inhibition of growth was determined visually after 72 hrs.

[1] = tested on: Mycosphaerella arachidis Syn. Cercospora arachidicola; experiment: Mycosphaerella arachidis growth inhibition in liquid culture (microtiter plate, photometric); conditions: for Observed Activity (%): A-1.3 0 ppm
Excerpt: A synergistic effect exists whenever the action of an active ingredient combination is greater than the sum of the actions of the individual components. The action to be expected E for a given active ingredient combination obeys the so-called COLBY formula and can be calculated as follows (COLBY, S. R. “Calculating synergistic and antagonistic responses of herbicide combination”. Weeds, Vol. 15, pages 20-22; 1967): • ppm=milligrams of active ingredient (=a.i.) per liter of spray mixture • X=% action by active ingredient A) using p ppm of active ingredient • Y=% action by active ingredient B) using q ppm of active ingredient. According to COLBY, the expected (additive) action of active ingredients A)+B) using p+q ppm of active ingredient is: If the action actually observed (O) is greater than the expected action (E), then the action of the combination is super-additive, i.e. there is a synergistic effect. In mathematical terms, synergism corresponds to a positive value for the difference of (O-E). In the case of purely complementary addition of activities (expected activity), said difference (O-E) is zero. A negative value of said difference (O-E) signals a loss of activity compared to the expected activity. Mycosphaerella arachidis Syn. Cercospora arachidicola (Brown Leaf Spot of Peanut): Conidia of the fungus from cryogenic storage were directly mixed into nutrient broth (PDB potato dextrose broth). A DMSO solution of the test compounds was placed into a microtiter plate (96-well format) and the nutrient broth containing the fungal spores was added to it. The test plates were incubated at 24° C. and the inhibition of growth was determined photometrically after 5-6 days at 620 nm.

Septoria tritici = Septoria tritici growth inhibition in liquid culture (microtiter plate, photometric)
Excerpt: A synergistic effect exists whenever the action of an active ingredient combination is greater than the sum of the actions of the individual components. The action to be expected E for a given active ingredient combination obeys the so-called COLBY formula and can be calculated as follows (COLBY, S. R. “Calculating synergistic and antagonistic responses of herbicide combination”. Weeds, Vol. 15, pages 20-22; 1967): • ppm=milligrams of active ingredient (=a.i.) per liter of spray mixture • X=% action by active ingredient A) using p ppm of active ingredient • Y=% action by active ingredient B) using q ppm of active ingredient. According to COLBY, the expected (additive) action of active ingredients A)+B) using p+q ppm of active ingredient is: If the action actually observed (O) is greater than the expected action (E), then the action of the combination is super-additive, i.e. there is a synergistic effect. In mathematical terms, synergism corresponds to a positive value for the difference of (O-E). In the case of purely complementary addition of activities (expected activity), said difference (O-E) is zero. A negative value of said difference (O-E) signals a loss of activity compared to the expected activity. Septoria tritici (Leaf Blotch): Conidia of the fungus from cryogenic storage were directly mixed into nutrient broth (PDB potato dextrose broth). A DMSO solution of the test compounds was placed into a microtiter plate (96-well format) and the nutrient broth containing the fungal spores was added to it. The test plates were incubated at 24° C. and the inhibition of growth was determined photometrically after 72 hrs.

O=C(NC1CCC1c1ccc(Cl)cc1Cl)c1cccnc1C(F)(F)F (stereo in doubt) [Cyclobutrifluram]
Observed Activity (%) (Corynespora cassiicola; Cyclobutrifluram 0.0125 ppm): 0%
Observed Activity (%) (Corynespora cassiicola; Cyclobutrifluram 0.025 ppm): 20%
Observed Activity (%) (Corynespora cassiicola; Cyclobutrifluram 0.05 ppm): 50%
Observed Activity (%) (Septoria glycines; Table 13: A-1.3 0 ppm, Cyclobutrifluram 0.05 ppm): 70%
Observed Activity (%) (Septoria glycines; Table 13: A-1.3 0 ppm, Cyclobutrifluram 0.1 ppm): 90%
Observed Activity (%) (Septoria glycines; Table 13: A-1.3 0 ppm, Cyclobutrifluram 0.2 ppm): 90%
Observed Activity (%) (Septoria glycines; Table 14: A-1.3 0 ppm, Cyclobutrifluram 0.0125 ppm): 20%
Observed Activity (%) (Septoria glycines; Table 14: A-1.3 0 ppm, Cyclobutrifluram 0.025 ppm): 50%
Observed Activity (%) (Septoria glycines; Table 14: A-1.3 0 ppm, Cyclobutrifluram 0.05 ppm): 70%
Observed Activity (%) (Septoria glycines; Table 14: A-1.3 0 ppm, Cyclobutrifluram 0.1 ppm): 70%
Observed Activity (%) (Septoria glycines; Table 14: A-1.3 0 ppm, Cyclobutrifluram 0.2 ppm): 90%

CO/C=C(/C(=O)OC)c1ccccc1CSc1nc2ccccc2s1 [Benzothiostrobin]
Observed Activity (%) (Septoria glycines; Table 22: A-1.3 0 ppm, Benzothiostrobin 0.0125 ppm): 50%
Observed Activity (%) (Septoria glycines; Table 22: A-1.3 0 ppm, Benzothiostrobin 0.025 ppm): 70%
Observed Activity (%) (Septoria glycines; Table 22: A-1.3 0 ppm, Benzothiostrobin 0.05 ppm): 90%
Observed Activity (%) (Septoria glycines; Table 22: A-1.3 0 ppm, Benzothiostrobin 0.1 ppm): 90%
Observed Activity (%) (Septoria glycines; Table 22: A-1.3 0 ppm, Benzothiostrobin 0.2 ppm): 90%

COC(=O)C(O)(Cn1cncn1)c1ccc(Oc2ccc(Cl)cc2)cc1C(F)(F)F (centres unmarked) [Compound A-1.3, Methyl 2-[4-(4-chlorophenoxy)-2-(trifluoromethyl)phenyl]-2-hydroxy-3-(1,2,4-triazol-1-yl)propanoate]
inhibition at 0.03 ppm (Corynespora cassiicola; Corynespora cassiicola, A-1.3 0.03 ppm, Cyclobutrifluram 0 ppm, read-out: Observed Activity (%)): 0%
inhibition at 0.2 ppm (Corynespora cassiicola; Corynespora cassiicola, A-1.3 0.2 ppm, Pyrisoxazole 0 ppm, read-out: Observed Activity (%)): 20%
inhibition at 0.03 ppm ([1]; Mycosphaerella arachidis, A-1.3 0.03 ppm, Pyriofenone 0 ppm, read-out: Observed Activity (%)): 50%
inhibition at 0.03 ppm (Septoria tritici; Zymoseptoria tritici, Table 11: A-1.3 0.03 ppm, Pyrisoxazole 0 ppm, read-out: Observed Activity (%)): 0%
inhibition at 0.06 ppm (Septoria tritici; Zymoseptoria tritici, Table 12: A-1.3 0.06 ppm, Pyrisoxazole 0 ppm, read-out: Observed Activity (%)): 70%
inhibition at 0.03 ppm (Septoria glycines; Septoria glycines, Table 13: A-1.3 0.03 ppm, Cyclobutrifluram 0 ppm, read-out: Observed Activity (%)): 0%
inhibition at 0.06 ppm (Septoria glycines; Septoria glycines, Table 14: A-1.3 0.06 ppm, Cyclobutrifluram 0 ppm, read-out: Observed Activity (%)): 20%

COc1ccnc(C(=O)N[C@@H](C)C(=O)O[C@@H](C)C(c2ccc(F)cc2)c2ccc(F)cc2)c1OC(C)=O [Florylpicoxamid]
Observed Activity (%) (Septoria glycines; Table 15: A-1.3 0 ppm, Florylpicoxamid 0.05 ppm): 70%
Observed Activity (%) (Septoria glycines; Table 15: A-1.3 0 ppm, Florylpicoxamid 0.1 ppm): 90%

COc1c(F)c(F)c(C(=O)NCc2ncc(C(F)(F)F)cc2Cl)c(F)c1F [Fluopimomide]
Observed Activity (%) (Septoria glycines; Table 20: A-1.3 0 ppm, Fluopimomide 1.25 ppm): 0%
Observed Activity (%) (Septoria glycines; Table 20: A-1.3 0 ppm, Fluopimomide 2.5 ppm): 0%
Observed Activity (%) (Septoria glycines; Table 20: A-1.3 0 ppm, Fluopimomide 5 ppm): 0%
Observed Activity (%) (Septoria glycines; Table 20: A-1.3 0 ppm, Fluopimomide 10 ppm): 0%
Observed Activity (%) (Septoria glycines; Table 20: A-1.3 0 ppm, Fluopimomide 20 ppm): 0%

Cc1nc2c(F)c(F)ccc2cc1Oc1cccc(F)c1C(C)(C)O [Ipflufenoquin]
Observed Activity (%) (Septoria glycines; Table 16: A-1.3 0 ppm, Ipflufenoquin 0.6125 ppm): 70%
Observed Activity (%) (Septoria glycines; Table 16: A-1.3 0 ppm, Ipflufenoquin 1.25 ppm): 90%

CNC(=O)C(OC)c1ccccc1COc1cc(C)ccc1C (centres unmarked) [Mandestrobin]
Observed Activity (%) (Septoria glycines; Table 17: A-1.3 0 ppm, Mandestrobin 0.125 ppm): 50%
Observed Activity (%) (Septoria glycines; Table 17: A-1.3 0 ppm, Mandestrobin 0.25 ppm): 70%
Observed Activity (%) (Septoria glycines; Table 17: A-1.3 0 ppm, Mandestrobin 0.5 ppm): 90%
Observed Activity (%) (Septoria glycines; Table 18: A-1.3 0 ppm, Mandestrobin 0.25 ppm): 70%
Observed Activity (%) (Septoria glycines; Table 18: A-1.3 0 ppm, Mandestrobin 0.5 ppm): 70%
Observed Activity (%) (Septoria glycines; Table 18: A-1.3 0 ppm, Mandestrobin 1 ppm): 90%

Cc1cccc(-n2nnn(C)c2=O)c1COc1ccn(-c2ccc(Cl)cc2)n1 [Metyltetraprole]
Observed Activity (%) (Septoria glycines; Table 19: A-1.3 0 ppm, Metyltetraprole 0.003125 ppm): 50%
Observed Activity (%) (Septoria glycines; Table 19: A-1.3 0 ppm, Metyltetraprole 0.00625 ppm): 70%
Observed Activity (%) (Septoria glycines; Table 19: A-1.3 0 ppm, Metyltetraprole 0.0125 ppm): 90%
Observed Activity (%) (Septoria glycines; Table 23: A-1.3 0 ppm, Metyltetraprole 0.003125 ppm): 20%
Observed Activity (%) (Septoria glycines; Table 23: A-1.3 0 ppm, Metyltetraprole 0.00625 ppm): 70%
Observed Activity (%) (Septoria glycines; Table 23: A-1.3 0 ppm, Metyltetraprole 0.0125 ppm): 70%
Observed Activity (%) (Septoria glycines; Table 23: A-1.3 0 ppm, Metyltetraprole 0.025 ppm): 90%
Observed Activity (%) (Septoria glycines; Table 23: A-1.3 0 ppm, Metyltetraprole 0.05 ppm): 90%
Observed Activity (%) (Septoria glycines; Table 23: A-1.3 0 ppm, Metyltetraprole 0.1 ppm): 90%

COc1cc(C)c(C(=O)c2c(OC)ncc(Cl)c2C)c(OC)c1OC [Pyriofenone]
Observed Activity (%) ([1]; Pyriofenone 2.5 ppm): 0%
Observed Activity (%) ([1]; Pyriofenone 5 ppm): 0%
Observed Activity (%) ([1]; Pyriofenone 10 ppm): 0%
Observed Activity (%) ([1]; Pyriofenone 20 ppm): 0%
Observed Activity (%) (Septoria glycines; Table 21: A-1.3 0 ppm, Pyriofenone 1.25 ppm): 20%
Observed Activity (%) (Septoria glycines; Table 21: A-1.3 0 ppm, Pyriofenone 2.5 ppm): 20%
Observed Activity (%) (Septoria glycines; Table 21: A-1.3 0 ppm, Pyriofenone 5 ppm): 20%
Observed Activity (%) (Septoria glycines; Table 21: A-1.3 0 ppm, Pyriofenone 10 ppm): 20%
Observed Activity (%) (Septoria glycines; Table 21: A-1.3 0 ppm, Pyriofenone 20 ppm): 20%

CN1OC(c2ccc(Cl)cc2)CC1(C)c1cccnc1 (centres unmarked) [Pyrisoxazole]
Observed Activity (%) (Corynespora cassiicola; Pyrisoxazole 0.5 ppm): 20%
Observed Activity (%) (Corynespora cassiicola; Pyrisoxazole 1 ppm): 70%
Observed Activity (%) (Septoria tritici; Table 11: A-1.3 0 ppm, Pyrisoxazole 0.25 ppm): 0%
Observed Activity (%) (Septoria tritici; Table 11: A-1.3 0 ppm, Pyrisoxazole 0.5 ppm): 20%
Observed Activity (%) (Septoria tritici; Table 12: A-1.3 0 ppm, Pyrisoxazole 0.0625 ppm): 0%
Observed Activity (%) (Septoria tritici; Table 12: A-1.3 0 ppm, Pyrisoxazole 0.125 ppm): 0%
Observed Activity (%) (Septoria tritici; Table 12: A-1.3 0 ppm, Pyrisoxazole 0.25 ppm): 0%
Observed Activity (%) (Septoria tritici; Table 12: A-1.3 0 ppm, Pyrisoxazole 0.5 ppm): 70%
Observed Activity (%) (Septoria tritici; Table 12: A-1.3 0 ppm, Pyrisoxazole 1 ppm): 90%

From US20230172209A1, “FUNGICIDAL COMPOSITIONS” (SYNGENTA CROP PROTECTION AG, priority 2020, published 2023)
